Experimental data reported in ChEMBL document CHEMBL4808180, “Identification of 2,2-Dimethylbutanoic Acid (HST5040), a Clinical Development Candidate for the Treatment of Propionic Acidemia and Methylmalonic Acidemia” (J Med Chem, 2021).
The source made the active and inactive calls. The calls are words filed in the database; no cut-off is given here.

Key:
[1] = Reduction of propionyl-CoA in human hepatocytes derived from propionic acidemia patient pretreated for 30 mins followed by 13C-isoleucine addition and measured after 1 hr by MS/MS analysis; assay type: functional, cell-based; conditions: hepatocyte
[2] = Drug excretion in Sprague-Dawley rat urine at 10 mg/kg, po using radiolabeled compound measured at 1 hr post dose; assay type: ADME, organism-based; conditions: in vivo
[3] = Reduction of propionyl carnitine in human hepatocytes derived from propionic acidemia patient at 30 uM pretreated for 30 mins followed by 13C-isoleucine addition and measured after 1 hr by MS/MS analysis relative to control; assay type: functional, Hepatocyte; set-up: scale not given: the % may be the effect or the level left; conditions: time 90 min, 1.5 h
[4] = Cmax in CD1 mouse at 30 mg/kg, iv; assay type: ADME, organism-based; set-up: route intravenous, dose 30 mg/kg; conditions: in vivo
[5] = Cmax in CD1 mouse at 30 mg/kg, po; assay type: ADME, organism-based; set-up: route oral, dose 30 mg/kg; conditions: in vivo
[6] = Drug metabolism in Gottingen minipig plasma assessed as HST5040-glycine metabolite formation at 10 mg/kg administered as single dose by LC/MS analysis; assay type: ADME, organism-based, Sus scrofa domesticus; conditions: pig, in vivo
[7] = Apparent permeability of the compound across apical to basal side in human Caco-2 cells; assay type: ADME, cell-based
Hepatocyte = experiment: Cytotoxicity against human hepatocytes assessed as reduction in cell viability using radiolabeled compound; assay type: cell-based
OAT3 = molecular target: T1, OAT3 (Homo sapiens, UniProt Q8TCC7); experiment: Inhibition of human OAT3 assessed as reduction in OAT3-mediated tenofovir transport at 14900 uM relative to control; conditions: not told, probe tenofovir
T1 sequence (Q8TCC7 whole entry): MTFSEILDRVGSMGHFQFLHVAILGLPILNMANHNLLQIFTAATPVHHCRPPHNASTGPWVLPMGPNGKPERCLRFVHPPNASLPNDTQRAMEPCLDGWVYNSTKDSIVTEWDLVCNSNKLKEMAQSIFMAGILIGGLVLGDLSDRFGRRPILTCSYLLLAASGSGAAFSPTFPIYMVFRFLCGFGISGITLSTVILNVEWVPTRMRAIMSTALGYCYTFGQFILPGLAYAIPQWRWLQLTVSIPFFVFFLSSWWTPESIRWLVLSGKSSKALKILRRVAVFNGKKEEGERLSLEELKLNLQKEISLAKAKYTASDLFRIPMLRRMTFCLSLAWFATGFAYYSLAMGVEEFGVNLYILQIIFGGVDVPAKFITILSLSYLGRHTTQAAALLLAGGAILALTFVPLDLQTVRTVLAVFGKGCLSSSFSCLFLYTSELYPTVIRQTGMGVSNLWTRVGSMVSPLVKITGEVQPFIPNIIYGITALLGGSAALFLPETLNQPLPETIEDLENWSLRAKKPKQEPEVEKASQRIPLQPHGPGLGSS

[8] = Reduction of CoASH in human hepatocytes derived from propionic acidemia patient pretreated for 30 mins followed by 13C-isoleucine addition and measured after 1 hr by MS/MS analysis; assay type: functional, cell-based; conditions: hepatocyte
[9] = Drug metabolism in Gottingen minipig urine assessed as HST5040-glucuronide metabolite formation at 10 mg/kg administered as single dose by LC/MS analysis; assay type: ADME, organism-based, Sus scrofa domesticus; conditions: pig, in vivo
[10] = Reduction of 2-Methylcitric acid in human hepatocytes derived from propionic acidemia patient at 30 uM pretreated for 30 mins followed by 13C-isoleucine addition and measured after 1 hr by MS/MS analysis relative to control; assay type: functional, Hepatocyte; set-up: scale not given: the % may be the effect or the level left; conditions: time 90 min, 1.5 h
[11] = Tmax in Gottingen minipig at 10 mg/kg, po using radiolabeled compound by quantitative whole-body autoradiography; assay type: ADME, organism-based, Sus scrofa domesticus; conditions: pig, in vivo
[12] = molecular target: Solute carrier family 22 member 2 (Homo sapiens) (UniProt O15244); experiment: Inhibition of human OCT2 assessed as reduction in OCT2-mediated metformin transport at 14900 uM relative to control
[13] = Reduction of acetyl carnitine in human hepatocytes derived from propionic acidemia patient pretreated for 30 mins followed by 13C-isoleucine addition and measured after 1 hr by MS/MS analysis; assay type: functional, cell-based; conditions: hepatocyte
[14] = Cmax in Sprague-Dawley rat at 10 mg/kg, po; assay type: ADME, organism-based; set-up: route oral, dose 10 mg/kg; conditions: in vivo
[15] = Half life in CD1 mouse at 30 mg/kg, po; assay type: ADME, organism-based; conditions: in vivo
Bile salt export pump = Bile salt export pump (Homo sapiens, UniProt O95342); experiment: Inhibition of human BSEP assessed as reduction in BSEP-mediated taurocholate transport at 345 uM relative to control
[16] = Drug metabolism in human hepatocytes derived from propionic acidemia patient assessed as formation of 2,2-dimethylbutanoic acid-CoA pretreated for 30 mins followed by 13C-isoleucine addition and measured after 1 hr by MS/MS analysis relative to control; assay type: ADME, cell-based; conditions: Hepatocyte
Cytochrome P450 2B6 = molecular target: T2, Cytochrome P450 2B6 (Homo sapiens, UniProt P20813); experiment: Direct inhibition of CYP2B6 in human liver microsomes using bupropion as substrate; assay type: ADME
T2 sequence (P20813 whole entry): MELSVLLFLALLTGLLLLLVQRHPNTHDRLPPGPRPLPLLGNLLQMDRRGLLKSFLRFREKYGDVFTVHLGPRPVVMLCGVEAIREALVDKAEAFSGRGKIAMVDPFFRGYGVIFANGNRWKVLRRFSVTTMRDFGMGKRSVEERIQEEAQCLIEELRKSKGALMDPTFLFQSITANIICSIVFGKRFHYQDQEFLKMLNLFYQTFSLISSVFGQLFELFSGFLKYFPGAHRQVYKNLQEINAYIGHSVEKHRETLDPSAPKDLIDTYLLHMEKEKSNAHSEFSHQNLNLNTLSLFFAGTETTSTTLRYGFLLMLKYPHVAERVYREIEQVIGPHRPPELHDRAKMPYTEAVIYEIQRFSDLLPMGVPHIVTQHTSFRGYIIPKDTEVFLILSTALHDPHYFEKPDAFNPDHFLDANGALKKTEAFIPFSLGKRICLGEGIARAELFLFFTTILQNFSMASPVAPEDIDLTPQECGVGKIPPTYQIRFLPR

[17] = Reduction of propionyl-CoA in human hepatocytes derived from propionic acidemia patient at 30 uM pretreated for 30 mins followed by 13C-isoleucine addition and measured after 1 hr by MS/MS analysis relative to control; assay type: functional, Hepatocyte; set-up: scale not given: the % may be the effect or the level left; conditions: time 90 min, 1.5 h
[18] = Volume of distribution of CD1 mouse at 30 mg/kg, iv; assay type: ADME, organism-based; conditions: in vivo
[19] = Reduction of CoASH in human hepatocytes derived from methylmalonic acidemia at 30 uM pretreated for 30 mins followed by 13C-isoleucine addition and measured after 1 hr by MS/MS analysis; assay type: functional, Hepatocyte; set-up: scale not given: the % may be the effect or the level left; conditions: time 90 min, 1.5 h
[20] = Half life in Sprague-Dawley rat plasma at 10 mg/kg, po using radiolabeled compound by quantitative whole-body autoradiography; assay type: ADME, organism-based; conditions: in vivo
[21] = Drug metabolism in Sprague-Dawley rat feces assessed as HST5040-glycine metabolite formation at 10 mg/kg administered as single dose by LC/MS analysis; assay type: ADME, organism-based; conditions: in vivo
[22] = Ratio of drug level in liver to plasma in Sprague-Dawley rat at 10 mg/kg, po measured at 1 hr post dose; assay type: ADME, organism-based; conditions: liver (relative to plasma)
[23] = Half life in Sprague-Dawley rat at 200 mg/kg, po; assay type: ADME, organism-based; conditions: in vivo
[24] = Drug metabolism in mini-pig hepatocytes assessed as formation of 2,2-dimethylbutanoic acid-CoA incubated for 1 hrs by MS/MS analysis; assay type: ADME, cell-based, Sus scrofa domesticus; conditions: Sus scrofa, Hepatocyte
[25] = Reduction of acetyl-CoA in human hepatocytes derived from propionic acidemia patient at 30 uM pretreated for 30 mins followed by 13C-isoleucine addition and measured after 1 hr by MS/MS analysis relative to control; assay type: functional, Hepatocyte; set-up: scale not given: the % may be the effect or the level left; conditions: time 90 min, 1.5 h

Chain of Solute carrier family 22 member 2 (Homo sapiens) (O15244 whole entry, looked up): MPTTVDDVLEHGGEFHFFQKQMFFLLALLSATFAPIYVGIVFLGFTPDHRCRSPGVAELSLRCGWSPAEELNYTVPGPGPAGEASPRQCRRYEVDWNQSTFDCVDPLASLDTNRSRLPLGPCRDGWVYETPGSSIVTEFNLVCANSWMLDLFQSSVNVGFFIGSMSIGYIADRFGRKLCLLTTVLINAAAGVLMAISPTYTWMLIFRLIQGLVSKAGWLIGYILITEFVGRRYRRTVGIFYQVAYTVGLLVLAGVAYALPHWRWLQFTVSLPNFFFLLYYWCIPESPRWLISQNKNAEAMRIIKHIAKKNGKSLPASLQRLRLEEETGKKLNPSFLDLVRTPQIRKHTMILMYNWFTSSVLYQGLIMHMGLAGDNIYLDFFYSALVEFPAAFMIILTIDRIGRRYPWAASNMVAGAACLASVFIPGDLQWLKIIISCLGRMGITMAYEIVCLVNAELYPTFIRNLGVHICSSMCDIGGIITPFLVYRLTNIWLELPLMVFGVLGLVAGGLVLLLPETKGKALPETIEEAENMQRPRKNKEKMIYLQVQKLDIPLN
Chain of Bile salt export pump (O95342 whole entry): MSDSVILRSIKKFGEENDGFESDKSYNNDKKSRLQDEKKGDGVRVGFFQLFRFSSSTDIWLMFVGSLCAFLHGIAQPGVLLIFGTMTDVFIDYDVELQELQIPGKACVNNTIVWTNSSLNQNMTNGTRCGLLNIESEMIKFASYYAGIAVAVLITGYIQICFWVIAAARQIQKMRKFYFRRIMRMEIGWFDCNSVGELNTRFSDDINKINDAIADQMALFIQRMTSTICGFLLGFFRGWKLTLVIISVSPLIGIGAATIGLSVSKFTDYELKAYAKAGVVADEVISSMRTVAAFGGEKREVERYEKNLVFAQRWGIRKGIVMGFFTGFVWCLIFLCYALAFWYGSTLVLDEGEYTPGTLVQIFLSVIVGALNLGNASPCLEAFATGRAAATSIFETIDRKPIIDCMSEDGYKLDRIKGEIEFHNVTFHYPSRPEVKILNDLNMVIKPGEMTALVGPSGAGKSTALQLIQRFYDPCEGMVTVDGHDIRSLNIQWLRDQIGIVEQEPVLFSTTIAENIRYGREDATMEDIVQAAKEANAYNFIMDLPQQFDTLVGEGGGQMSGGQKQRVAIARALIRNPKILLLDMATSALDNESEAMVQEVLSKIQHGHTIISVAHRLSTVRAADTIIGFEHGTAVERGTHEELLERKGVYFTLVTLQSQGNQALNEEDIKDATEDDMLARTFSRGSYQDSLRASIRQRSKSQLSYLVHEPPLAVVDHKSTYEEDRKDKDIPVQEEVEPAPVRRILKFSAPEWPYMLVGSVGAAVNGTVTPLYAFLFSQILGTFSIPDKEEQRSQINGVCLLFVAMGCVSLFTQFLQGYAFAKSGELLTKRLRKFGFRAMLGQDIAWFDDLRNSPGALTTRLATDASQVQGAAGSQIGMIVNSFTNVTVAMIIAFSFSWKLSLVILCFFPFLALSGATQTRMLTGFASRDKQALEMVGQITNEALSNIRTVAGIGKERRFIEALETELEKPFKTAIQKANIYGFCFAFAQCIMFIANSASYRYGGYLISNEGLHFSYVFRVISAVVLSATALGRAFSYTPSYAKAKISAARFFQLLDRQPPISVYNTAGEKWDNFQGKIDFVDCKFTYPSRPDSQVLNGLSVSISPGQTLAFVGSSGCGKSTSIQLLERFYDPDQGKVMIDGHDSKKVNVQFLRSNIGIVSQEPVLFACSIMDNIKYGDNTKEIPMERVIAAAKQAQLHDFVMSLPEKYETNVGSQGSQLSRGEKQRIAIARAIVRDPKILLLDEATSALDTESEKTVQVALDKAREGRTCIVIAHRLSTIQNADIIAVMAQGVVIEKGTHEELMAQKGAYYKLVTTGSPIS

In the case of `CCC(C)(C)C(=O)O` [DIMEBUTIC ACID], the EC50 [1] is reported as 0.94 µM, the Drug excretion [2] is reported as 72% and the Activity [3] is reported as -69.4%. For the same compound, the Cmax [4] was 59400 ng/mL, the Cmax [5] was 33700 ng/mL and the Drug metabolism [6] was “Metabolite_Detected”. For the same compound, the Papp A→B [7] was greater than 20 ×10⁻⁶ cm/s, the Activity (Hepatocyte) was “Non-Toxic” and the inhibition at 14900 µM (OAT3) was 90.9%. The EC50 [8] was 11.6 µM, the Drug metabolism [9] was “Metabolite_Detected” and the Activity [10] was -78.6%. For the same compound, the Tmax [11] was 0.5 h, the inhibition [12] was “inactive” and the EC50 [13] was 4.8 µM. The Cmax [14] was 4270 ng/mL, the half-life [15] was 0.59 h and the “inhibition (INH)” value (Bile salt export pump) was “Not Active”. For the same compound, the EC50 [16] was 3 µM, the IC50 (Cytochrome P450 2B6) was greater than 10000 µM and the Activity [17] was -78.8%. The Vd [18] was 0.469 L/kg, the Activity [19] was -22.3% and the t1/2 [20] was 2.4 h. For the same compound, the Drug metabolism [21] was “Metabolite_Detected”, the Kp at 1 h [22] was 4.6 and the half-life [23] was 2.73 h. The EC50 [24] was 8.3 µM and the Activity [25] was 54%.
